Measured values published in US20250302788A1, “COMPOSITION COMPRISING CREATINE FOR USE IN THE TREATMENT OF POST VIRAL FATIGUE SYNDROME” (Alzchem Trostberg GmbH, priority 2022, published 2025).
Like-named read-outs stand apart in the source and are kept apart here.

How the values were obtained:
[1] = tested on: patients suffering under Post-COVID; experiment: Incremental treadmill test until exhaustion, Example 1; type: in vivo, human; conditions: for Time to exhaustion: 4 g/day
Method: In addition the time to exhaustion of the patients was evaluated by an incremental test until exhaustion on a motorized treadmill. Speed and gradient of the treadmill are increased every third minute, starting at 2.7 km/h (1.7 miles per hour) at a 10% gradient and rising at stage 7 to 9.7 km/h (6 miles per hour) at 22% gradient (Will P. M. and Walter J. D., Am Heart. J., 1999 December, 138, 1033).

[2] = both, human, in vivo
[3] = tested on: patients suffering under Post-COVID; experiment: VAS scale of COVID-19-related signs and symptoms, Example 1; type: in vivo, human; conditions: 4 g/day
Method: (§1) The patient-reported outcomes for COVID-19-related signs and symptoms (e.g. headache, concentrating difficulties, anosmia, ageusia) were evaluated with VAS scale. Fatigue, comprising the conditions of the group general fatigue, physical fatigue, metal fatigue, reduced activity, and reduced motivation, was evaluated with a multidimensional fatigue inventory test (MFI-20 test, Smets E. M. et al., J. Psychosom. Res. 1995, 39 (3), 315).

[4] = tested on: patients suffering under Post-COVID; experiment: Reported side effects, Example 1; type: in vivo, human; conditions: 4 g creatine monohydrate/day, up to 6 months
Method: The number of participants who were randomly assigned, received intended treatment, and were analyzed for the primary outcome at this time was twelve in total, six in experimental group and six in control group.

[5] = tested on: patients suffering under Post-COVID; experiment: MFI-20 multidimensional fatigue inventory test, Example 1; type: in vivo, human; conditions: 4 g/day
Method: as §1

[6] = normal healthy population; cited from earlier work
PCFS patients [7] = experiment: Incremental treadmill test until exhaustion, Example 3; type: in vivo, human; conditions: for Change of time to exhaustion: post-administration (8 weeks) vs baseline
Method: In addition the time to exhaustion of the patients was evaluated by an incremental test until exhaustion on a motorized treadmill.

[8] = human, in vivo
PCFS patients [9] = type: in vivo, human
PCFS patients [10] = experiment: MFI-20 fatigue test, Example 3; type: in vivo, human
PCFS patients [11] = conditions: in vivo
[12] = 8 weeks vs baseline, listed as EXP 2, monohydrate
[13] = 8 weeks vs baseline, monohydrate

## CN(CC(=O)O)C(=N)N.O [Creatine, creatine monohydrate]
[1]; 3-months
  Time to exhaustion: 922 s
[1]; 6-months
  Time to exhaustion: 959 s
[1]; Baseline
  Time to exhaustion: 894 s
[1]; placebo group remains at stage 5
  Stage achieved in the treadmill test: stage 6
[1]; vs baseline, compared to 2.1% after placebo intake
  Increase of time to exhaustion: 7.3%
[2]
  Total creatine, Left frontal grey matter: 6.6 ± 0.6 mM
  Total creatine, Left frontal white matter: 6.7 ± 0.7 mM
  Total creatine, Left mesial grey matter: 8.1 ± 1.3 mM
  Total creatine, Left paracentral grey matter: 6.8 ± 0.8 mM
  Total creatine, Left parietal white matter: 7.5 ± 1.6 mM
  Total creatine, Left precentral white matter: 6.4 ± 1.0 mM
  Total creatine, Right frontal grey matter: 6.6 ± 1.1 mM
  Total creatine, Right frontal white matter: 6.7 ± 1.0 mM
  Total creatine, Right mesial grey matter: 8.4 ± 1.4 mM
  Total creatine, Right paracentral grey matter: 7.2 ± 0.8 mM
  Total creatine, Right parietal white matter: 7.6 ± 1.9 mM
  Total creatine, Right precentral white matter: 6.8 ± 0.9 mM
  Total creatine, Thalamus: 5.1 ± 1.0 mM
  Total creatine, Vastus medialis muscle: 29.0 ± 5.6 mM
[2]; 8 weeks
  Cohen's effect size (d) for creatine increase, parietal mesial grey matter: 0.65
  Total creatine, Left frontal grey matter: 6.5 ± 0.5 mM
  Total creatine, Left frontal white matter: 6.8 ± 0.9 mM
  Total creatine, Left mesial grey matter: 8.6 ± 1.1 mM
  Total creatine, Left paracentral grey matter: 6.9 ± 0.9 mM
  Total creatine, Left parietal white matter: 7.8 ± 1.3 mM
  Total creatine, Left precentral white matter: 6.7 ± 0.8 mM
  Total creatine, Right frontal grey matter: 6.7 ± 1.0 mM
  Total creatine, Right frontal white matter: 7.0 ± 1.1 mM
  Total creatine, Right mesial grey matter: 9.2 ± 1.0 mM
  Total creatine, Right paracentral grey matter: 7.6 ± 1.6 mM
  Total creatine, Right parietal white matter: 7.7 ± 1.9 mM
  Total creatine, Right precentral white matter: 7.4 ± 1.1 mM
  Total creatine, Thalamus: 5.3 ± 0.9 mM
  Total creatine, Vastus medialis muscle: 30.4 ± 5.2 mM
[3]; 3 months
  Ageusia (VAS scale): 0.2
  Anosmia (VAS scale): 1.0
  Concentrating difficulties (VAS scale): 1.5
  Headache (VAS scale): 0.8
[3]; 6 months
  Ageusia (VAS scale): 0.0
  Anosmia (VAS scale): 0.8
  Concentrating difficulties (VAS scale): 0.0
  Headache (VAS scale): 0.5
[3]; Baseline
  Ageusia (VAS scale): 5.0
  Anosmia (VAS scale): 5.0
  Concentrating difficulties (VAS scale): 4.0
  Headache (VAS scale): 3.8
[4]
  Side effects: no major side effects
[5]; 3 months
  General fatigue (MFI-20 score): 11.3
  Mental fatigue (MFI-20 score): 11.2
  Physical fatigue (MFI-20 score): 12.7
  Reduced activity (MFI-20 score): 12.0
  Reduced motivation (MFI-20 score): 13.0
[5]; 6 months
  General fatigue (MFI-20 score): 12.7
  Mental fatigue (MFI-20 score): 10.5
  Physical fatigue (MFI-20 score): 13.2
  Reduced activity (MFI-20 score): 12.5
  Reduced motivation (MFI-20 score): 12.5
[5]; Baseline
  General fatigue (MFI-20 score): 12.0
  Mental fatigue (MFI-20 score): 12.3
  Physical fatigue (MFI-20 score): 13.5
  Reduced activity (MFI-20 score): 11.5
  Reduced motivation (MFI-20 score): 13.0
[6]
  Increase of creatine in the brain after creatine supplementation: ≤ 5%
PCFS patients [7]; 8 weeks
  Time to exhaustion: 844 s
PCFS patients [7]; Baseline
  Time to exhaustion: 824 s
PCFS patients [7]
  Change of time to exhaustion: 20 s
[8]; 0 months
  Total creatine, Vastus medialis muscle: 28.2 ± 3.0 mM
[8]; 3 months
  Cohen's effect size (d), brain creatine level, left parietal white matter: 0.92
  Cohen's effect size (d), brain creatine level, parietal white matter: 1.99
  Cohen's effect size (d), brain creatine level, right frontal white matter: 1.25
  Cohen's effect size (d), brain creatine level, right paracentral grey matter: 0.88
  Cohen's effect size (d), brain creatine level, right parietal messial grey matter: 1.17
  Cohen's effect size (d), brain creatine level, thalamus: 0.82
  Total creatine, Vastus medialis muscle: 30.0 ± 4.2 mM
[8]; 6 months
  Cohen's effect size (d), brain creatine level, left parietal messial grey matter: 0.84
  Cohen's effect size (d), brain creatine level, left parietal white matter: 1.17
  Cohen's effect size (d), brain creatine level, parietal white matter: 1.74
  Cohen's effect size (d), brain creatine level, right frontal white matter: 1.32
  Cohen's effect size (d), brain creatine level, right parietal messial grey matter: 1.06
  Total creatine, Vastus medialis muscle: 30.6 ± 3.4 mM
PCFS patients [9]; 8 weeks
  Ageusia (VAS scale): 0.2
  Anosmia (VAS scale): 0.0
  Concentrating difficulties (VAS scale): 2.2
  Headache (VAS scale): 0.8
  Malaise (VAS scale): 1.0
PCFS patients [9]; 8 weeks vs baseline
  Cohen's effect (d), Ageusia (AGE): 0.34
  Cohen's effect (d), Breathing Difficulties (BRD): 0.96
  Cohen's effect (d), Headache (HAD): 0.93
PCFS patients [9]; [12]
  Cohen's effect (d), Difficulties concentrating (DCN): 1.37
  Cohen's effect (d), Malaise (MAL): 1.81
PCFS patients [9]; [13]
  Cohen's effect (d), Difficulties concentrating (DCN): > 0.80
  Cohen's effect (d), Malaise (MAL): > 0.80
PCFS patients [9]; Baseline
  Ageusia (VAS scale): 0.0
  Anosmia (VAS scale): 0.0
  Concentrating difficulties (VAS scale): 4.2
  Headache (VAS scale): 3.2
  Malaise (VAS scale): 4.2
PCFS patients [10]; 8 weeks
  General fatigue (MFI-20 score): 12.0
  Mental fatigue (MFI-20 score): 12.2
  Physical fatigue (MFI-20 score): 11.4
  Reduced activity (MFI-20 score): 12.0
  Reduced motivation (MFI-20 score): 10.3
PCFS patients [10]; 8 weeks vs baseline
  Cohen's effect (d), General Fatigue: 0.44
  Cohen's effect (d), Mental Fatigue (MF): 1.32
  Cohen's effect (d), Physical Fatigue (PF): 0.83
  Cohen's effect (d), Reduced Motivation (RM): 1.07
  Cohen's effect (d), Reduced activity (RA): 1.52
PCFS patients [10]; Baseline
  General fatigue (MFI-20 score): 12.6
  Mental fatigue (MFI-20 score): 13.4
  Physical fatigue (MFI-20 score): 12.2
  Reduced activity (MFI-20 score): 13.6
  Reduced motivation (MFI-20 score): 11.6
PCFS patients [11]
  Side effects / tolerability: well-tolerated

## O=C[C@H](O)[C@@H](O)[C@H](O)[C@H](O)CO [Glucose, glucose, reference compound]
[2]
  Total creatine, Left frontal grey matter: 6.8 ± 0.4 mM
  Total creatine, Left frontal white matter: 5.8 ± 0.4 mM
  Total creatine, Left mesial grey matter: 7.6 ± 0.7 mM
  Total creatine, Left paracentral grey matter: 7.0 ± 0.9 mM
  Total creatine, Left parietal white matter: 5.4 ± 0.6 mM
  Total creatine, Left precentral white matter: 5.6 ± 0.6 mM
  Total creatine, Right frontal grey matter: 7.0 ± 0.9 mM
  Total creatine, Right frontal white matter: 5.6 ± 0.8 mM
  Total creatine, Right mesial grey matter: 7.3 ± 0.6 mM
  Total creatine, Right paracentral grey matter: 6.4 ± 0.7 mM
  Total creatine, Right parietal white matter: 5.2 ± 0.7 mM
  Total creatine, Right precentral white matter: 5.4 ± 0.6 mM
  Total creatine, Thalamus: 5.5 ± 0.5 mM
  Total creatine, Vastus medialis muscle: 30.1 ± 12.7 mM
[2]; 8 weeks
  Total creatine, Left frontal grey matter: 6.3 ± 0.9 mM
  Total creatine, Left frontal white matter: 5.6 ± 1.0 mM
  Total creatine, Left mesial grey matter: 7.4 ± 0.6 mM
  Total creatine, Left paracentral grey matter: 6.9 ± 0.7 mM
  Total creatine, Left parietal white matter: 5.3 ± 0.5 mM
  Total creatine, Left precentral white matter: 5.6 ± 0.5 mM
  Total creatine, Right frontal grey matter: 7.0 ± 0.7 mM
  Total creatine, Right frontal white matter: 5.6 ± 0.8 mM
  Total creatine, Right mesial grey matter: 7.0 ± 1.0 mM
  Total creatine, Right paracentral grey matter: 6.2 ± 1.1 mM
  Total creatine, Right parietal white matter: 5.2 ± 0.7 mM
  Total creatine, Right precentral white matter: 5.3 ± 0.7 mM
  Total creatine, Thalamus: 5.5 ± 0.7 mM
  Total creatine, Vastus medialis muscle: 28.5 ± 9.2 mM
PCFS patients [7]; 8 weeks
  Time to exhaustion: 908 s
PCFS patients [7]; Baseline
  Time to exhaustion: 915 s
PCFS patients [7]
  Change of time to exhaustion: -7 s
PCFS patients [9]; 8 weeks
  Ageusia (VAS scale): 0.6
  Anosmia (VAS scale): 1.0
  Concentrating difficulties (VAS scale): 3.0
  Headache (VAS scale): 2.8
  Malaise (VAS scale): 3.0
PCFS patients [9]; Baseline
  Ageusia (VAS scale): 2.2
  Anosmia (VAS scale): 2.6
  Concentrating difficulties (VAS scale): 4.4
  Headache (VAS scale): 3.8
  Malaise (VAS scale): 4.6
PCFS patients [10]; 8 weeks
  General fatigue (MFI-20 score): 11.6
  Mental fatigue (MFI-20 score): 11.0
  Physical fatigue (MFI-20 score): 12.6
  Reduced activity (MFI-20 score): 12.6
  Reduced motivation (MFI-20 score): 10.8
PCFS patients [10]; Baseline
  General fatigue (MFI-20 score): 12.0
  Mental fatigue (MFI-20 score): 11.4
  Physical fatigue (MFI-20 score): 12.8
  Reduced activity (MFI-20 score): 12.6
  Reduced motivation (MFI-20 score): 10.0
